The assay has as its system E. coli WT-GFP vs G2058-humanized RFP, fluorescence, 24 h. Kind of assay: growth inhibition of wild-type GFP E. coli versus G2058-humanized strain, dose response, G2058 mutant RFP vs wild-type GFP, cherry-pick, two tests (AID 1035470).
Where [1] appears, read: measured here: G2058 humanized mutant RFP growth.
[2] abbreviates: E. coli WT-GFP vs G2058-humanized RFP mixed culture, total growth OD600, 24 h.
Setting [3] is: E. coli WT-GFP vs G2058-humanized RFP mixed culture, OD600 growth, 24 h, test 1.
Setting [4] is: measured here: wild-type GFP, test 1.

Inconclusive results are not listed. The source made the active and inactive calls.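 The calls were made as follows: active = compound lowering the normal-ribosome reporter at least twice as much as the humanized-ribosome reporter, growth loss under a set limit; inconclusive = no clear call, values can overlap the other calls; inactive = the rest.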 A value given as a limit tells only on which side of the number the result lay.

The term AC50 denotes the concentration giving half of the maximal activity seen.

With `O=[N+]([O-])c1ccc(N2CCOCC2)c2c1no[n+]2[O-]`, under setting [1], the AC50 was 0.638 µM.

On to `COc1ccc(Cn2c(=O)c3[nH]cnc3n(-c3ccc(C)cc3)c2=O)cc1`, for which the AC50 is > 100 µM (inactive). The compound further registered an AC50 under setting [2] greater than 100 µM.

Consider `CCN(CC)CCn1c(SCC(=O)Nc2cccc(OC)c2)nc2c(sc3ccccc32)c1=O`, for which the AC50 is > 100 µM (inactive). Further, under setting [2], the AC50 is greater than 100 µM.

`COc1ccc(NC(=O)c2sccc2-n2cccc2)cc1`: the AC50 is > 100 µM (inactive). The AC50 under setting [2] is greater than 100 µM.

Regarding `Cc1nnn(C23CC4CC(CC(CC(=O)Nc5ccc(C)c(C)c5)(C4)C2)C3)n1`, the AC50 is > 100 µM (inactive). Moreover, the AC50 under setting [2] is greater than 100 µM.

The compound `Cc1ccc(-c2c(=O)n(O)c3ccccc3[n+]2[O-])cc1` yielded an AC50 under setting [1] greater than 100 µM.

For the compound `CSc1nc2ccc(NS(=O)(=O)c3ccc([N+](=O)[O-])cc3)cc2s1`, the AC50 was > 100 µM (inactive). Further, the AC50 under setting [2] was greater than 100 µM. Also, under setting [1], the AC50 is greater than 100 µM.

With `Cc1cc(C(=O)OCC(=O)Nc2cccc(S(N)(=O)=O)c2)c2ccccc2n1`, the AC50 is > 100 µM (inactive).

With `COc1cccc(C(=O)Nc2nnc(S(=O)(=O)N(C)Cc3ccccc3)s2)c1`, the AC50 was > 100 µM (inactive). Moreover, under setting [2], the AC50 was greater than 100 µM.

On to `CC(=O)Nc1nc(C)c(-c2csc(Nc3ccccn3)n2)s1`, for which the AC50 is > 100 µM (inactive).

Take `COC(=O)c1ccccc1NC(=O)c1ccc2c(c1)CC(C)O2` (stereo not drawn): the AC50 is > 100 µM (inactive). Moreover, under setting [2], the AC50 was 52.3 µM.

Turning to `CN1OC[C@@H]2CN(C(=O)c3ccco3)[C@H](c3ccc(-c4ccc(C#N)cc4)cc3)C[C@@H]21`, the AC50 is > 100 µM (inactive). Moreover, the AC50 under setting [2] is greater than 100 µM.

As for `CN(C)C(CNS(=O)(=O)c1cc([N+](=O)[O-])ccc1Cl)c1ccco1` (stereo not drawn), the AC50 is > 100 µM (inactive).

As for `CCn1nc(C(=O)OCc2cccc(S(=O)(=O)N(C)C)c2)c2ccccc2c1=O`, the AC50 was > 100 µM (inactive).

With `CCOC(=O)c1ccc(NC(=O)COc2ccc(CNCCO)cc2OCC)cc1`, the AC50 was > 100 µM (inactive).

As to `CC(C)Oc1ccc(C(CC(=O)O)NC(=O)C(Sc2ccccc2)c2ccccc2)cc1` (stereo not drawn), the AC50 is > 100 µM (inactive).

In the case of `COc1ccc(-c2cn3c(C)c(C(=O)Nc4cccc(C)n4)sc3n2)cc1`, the AC50 is > 100 µM (inactive). Under setting [2], this compound yielded an AC50 greater than 100 µM.

As for `CC(=O)c1ccc(OCC(=O)Nc2ccc3c(c2)CCC3)cc1`, the AC50 was > 100 µM (inactive). Moreover, the AC50 under setting [2] was greater than 100 µM.

Compound `O=C(CSCc1cnn(-c2ccccc2)c1-n1cccc1)NCc1cccnc1` yielded an AC50 under setting [2] greater than 100 µM.

As to `CCCc1nc2oc3c(NCCCN(C)C)ncnc3c2c2c1CCCC2`, the AC50 is > 100 µM (inactive). Moreover, the AC50 under setting [2] is greater than 100 µM.

On to `CCOc1ccccc1OCCCC(=O)N1CCN(S(=O)(=O)c2cc(F)ccc2F)CC1`, for which the AC50 is > 100 µM (inactive).

Take `Cc1cc(C(C)(C)C)oc1C(=O)N(CC(=O)NC1CCCC1)c1c(C)cccc1C`: the AC50 was > 100 µM (inactive).

As to `Cc1ccc(S(=O)(=O)Nc2ccccc2CNc2cccc(C)n2)cc1`, the AC50 was > 100 µM (inactive). This compound came in with an AC50 under setting [2] greater than 100 µM.

As to `COc1cccc(C(=O)C2CCCN(C/C=C/c3ccccc3OC)C2)c1` (stereo not drawn), the AC50 was > 100 µM (inactive). Besides, the AC50 under setting [1] is greater than 100 µM.

For `COC(=O)c1ccc(C(=O)Nc2ccc3nc(-c4ccncc4)[nH]c3c2)cc1`, the AC50 is > 100 µM (inactive). Moreover, the AC50 under setting [2] was greater than 100 µM.

As to `CC(C)(C)NC(=O)C(c1ccncc1)N(Cc1ccc(F)cc1)C(=O)c1ccc(-c2ccccc2)[nH]1` (stereo not drawn), the AC50 under setting [2] is greater than 100 µM.

For `COc1ccc(NC(=O)c2ccc(-c3ccc([N+](=O)[O-])cc3)o2)cc1`, the AC50 is 9.28 µM. Besides, the AC50 under setting [3] is greater than 100 µM. The compound also returned an AC50 under setting [4] of 4.75 µM.

As to `O=C(CCc1ccccc1)Nc1sc2c(c1C(=O)O)CCCC2`, the AC50 was > 100 µM (inactive).

In the case of `O=S(=O)(NC1c2cccc3cccc(c23)C1Sc1ncccn1)c1ccccc1` (stereo not drawn), the AC50 is > 100 µM (inactive). Further, under setting [2], the AC50 is 3.21 µM.

For `CCN(CC)c1nc(Oc2ccc(C(=O)OC)cc2)nc(N2CCOCC2)n1`, the AC50 was > 100 µM (inactive).

With `COC(=O)CC1COc2ccccc2N1C(=O)c1ccc(Br)cc1` (stereo not drawn), the AC50 was > 100 µM (inactive). In addition, under setting [2], the AC50 was greater than 100 µM.

`O=C(NCCc1ccccn1)c1cccc(S(=O)(=O)N2CCc3ccccc32)c1`: the AC50 is > 100 µM (inactive). Besides, the AC50 under setting [2] was greater than 100 µM.

`COC(=O)c1c(NC(=O)CCC(=O)O)sc(Cc2ccccc2)c1C`: the AC50 was 28.4 µM. Moreover, the half-maximal activity concentration (AC50) under setting [3] came to 27 µM. This compound also returned an AC50 under setting [2] of 35.7 µM. Under setting [1], this compound displayed an AC50 of 5.11 µM. The concentration at half-maximal activity (AC50) (measured here: mutant RFP, test 1) was 11.9 µM. The AC50 under setting [4] amounted to 1.53 µM.

In the case of `Cc1ccccc1OCc1nc2ccccc2n1C`, the AC50 is > 100 µM (inactive).

For the compound `N#Cc1ccc(OCC(=O)N2CCN(S(=O)(=O)c3ccc(Cl)s3)CC2)cc1`, the AC50 was > 100 µM (inactive).

As to `CC(C)Nc1nnc(SCC(=O)Nc2sccc2C#N)s1`, the AC50 was > 100 µM (inactive).

Turning to `O=C(Nc1ccc(Cl)cc1)N1C[C@H]2[C@@H](c3ccccc31)[C@@H](CO)N2C(=O)c1ccccn1`, the AC50 was > 100 µM (inactive).

With `COc1ccc(C(=O)CSc2nc3ccccc3n2CC(=O)c2ccccc2)cc1`, the AC50 was > 100 µM (inactive). This compound also came in with an AC50 under setting [1] greater than 100 µM.

`Cc1cc(C)c(S(=O)(=O)NCCOc2ccccc2)c(C)c1-n1cnnn1`: the AC50 was > 100 µM (inactive).

For the compound `CCOC(=O)c1cnc2c(c(C)nn2C)c1Oc1ccc(OC)cc1`, the AC50 was > 100 µM (inactive).

On to `CC(=O)N1CCN(c2nc(-c3cccs3)nc3ccccc23)CC1`, for which the AC50 is > 100 µM (inactive).

For the compound `COc1ccc(CNC(=O)c2nc(S(=O)(=O)Cc3ccccc3)ncc2Cl)cc1`, the AC50 was > 100 µM (inactive).

On to `Cc1ccc(NC(=O)c2ccc([N+](=O)[O-])s2)cc1S(=O)(=O)N1CCOCC1`, for which the AC50 was > 100 µM (inactive). Under setting [2], this compound registered an AC50 greater than 100 µM.

As to `CNC(=O)c1cc(C(=O)c2ccc(C(F)(F)F)cc2F)c[nH]1`, the AC50 was > 100 µM (inactive). The compound further displayed an AC50 under setting [2] greater than 100 µM.

Consider `Cc1cc2c(sc3ccccc32)c(C)n1`, for which the AC50 is > 100 µM (inactive). Besides, the AC50 under setting [2] was greater than 100 µM. Moreover, under setting [1], the concentration at half-maximal activity (AC50) worked out at 48.8 µM.

Take `Cc1ccc(CNS(=O)(=O)c2ccc3c(c2)NC(=O)CS3)cc1`: the AC50 is > 100 µM (inactive).

`COc1ccc(CNc2ncnc3cc(OC)c(OC)cc23)cc1OC`: the AC50 is > 100 µM (inactive). This compound gave an AC50 under setting [2] greater than 100 µM.

Turning to `COc1ccc(C#Cc2ccc([C@@H]3[C@@H](CO)N4CCCCN(C(=O)Nc5ccccc5F)C[C@H]34)cc2)cc1`, the AC50 is > 100 µM (inactive).

With `O=C(COC(=O)C1CC2C=CC1C2)NCCc1ccccc1` (stereo not drawn), the AC50 under setting [2] is greater than 100 µM.

Regarding `O=c1[nH]c(C2CCCN(S(=O)(=O)c3ccccc3Cl)C2)nc2c1nnn2Cc1ccc2c(c1)OCCO2` (stereo not drawn), the AC50 is > 100 µM (inactive).

`CCN(CC)CCN(C(=O)c1ccc2c(c1)OCCO2)c1nc2c(Cl)cccc2s1`: the AC50 was > 100 µM (inactive).

Take `COc1ccc(-n2c(-c3ccc(C)cc3)nc3ccccc3c2=O)cc1`: the AC50 was > 100 µM (inactive).

Turning to `CC(=O)Oc1ccc(N(c2ccccc2)S(=O)(=O)c2ccc(C)cc2)cc1`, the concentration at half-maximal activity (AC50) under setting [2] is greater than 100 µM.

As to `O=C(COn1nnc2ccc(C(F)(F)F)cc21)Nc1c(Cl)cccc1Cl`, the AC50 is > 100 µM (inactive). Moreover, the concentration at half-maximal activity (AC50) under setting [2] was greater than 100 µM.

As for `COc1ccc(NC(=O)Nc2cccc3c2O[C@@H](CN(C)S(=O)(=O)c2ccc(Cl)cc2)[C@@H](C)CN([C@@H](C)CO)C3=O)cc1`, the AC50 is > 100 µM (inactive).

With `O=C(Nc1cccc(Cl)c1)N1C[C@H]2[C@@H](c3ccccc31)[C@H](CO)N2Cc1ccncc1`, the AC50 is > 100 µM (inactive).

As for `CCOC(=O)c1c(CS(=O)(=O)c2ccccc2)n(C)c2cc(Br)c(O)cc12`, the AC50 was > 100 µM (inactive).

On to `O=C(Nc1cc(S(=O)(=O)N2CCCCC2)ccc1N1CCCCC1)C1CC1`, for which the AC50 is > 100 µM (inactive).

With `COc1ccc2c(c1)c1ncn(Cc3ccccn3)c(=O)c1n2C`, the AC50 is > 100 µM (inactive). The AC50 under setting [2] was greater than 100 µM.

For the compound `CC(=O)NCCOc1nc(N2CCCCC2)nc(N2CCCCC2)n1`, the AC50 was > 100 µM (inactive).

`O=C(O)c1ccc(Oc2ccc([N+](=O)[O-])cc2)c([N+](=O)[O-])c1`: the AC50 was > 100 µM (inactive).

As for `CCOCCCNC(=O)C(NC(=O)c1ccccc1O)c1ccc(C)cc1` (stereo not drawn), the AC50 under setting [2] is greater than 100 µM.

In the case of `CCCN(CC(=O)Nc1ccccc1C)C(=O)c1cccc(S(=O)(=O)N2CCc3ccccc3C2)c1`, the AC50 is > 100 µM (inactive). The compound further showed an AC50 under setting [2] greater than 100 µM.

For the compound `CCN(CC)C(=O)c1sc2nc(-c3ccccc3)ccc2c1N`, the AC50 is > 100 µM (inactive). This compound displayed an AC50 under setting [1] greater than 100 µM.

Turning to `COC(=O)C1CCN(C(=O)c2ccc(OC)c(S(=O)(=O)N3CCCc4ccccc43)c2)CC1`, the AC50 was > 100 µM (inactive).

As to `CC(C)(CC(=O)O)CC(=O)NCc1c(Cl)cccc1Sc1ccc(Cl)cc1`, the AC50 was > 100 µM (inactive).

Turning to `CCCCNC(=O)c1onc(CSc2cc(C)cc(C)c2)c1C(=O)O`, the AC50 is > 100 µM (inactive). Under setting [2], this compound came in with an AC50 of 37.3 µM.

Take `O=C(O)c1cc(-c2ccc(Cl)s2)nc2ccccc12`: the AC50 is > 100 µM (inactive).

As to `O=C(CCCn1c(=S)[nH]c2ccsc2c1=O)Nc1ccc2c(c1)OCCO2`, the AC50 is > 100 µM (inactive).

Take `O=C(Nc1ccc2nc(-c3cccnc3)[nH]c2c1)c1ccco1`: the AC50 is > 100 µM (inactive). In addition, the AC50 under setting [1] is greater than 100 µM.

Regarding `CCCC(=O)Nc1cccc(C(=O)Nc2ccccc2OCC)c1`, the AC50 was > 100 µM (inactive).

Values taken from PubChem BioAssay AID1035470 (Broad Institute, 2014).
